For data set [1], the target named is T1, Histamine H3 receptor (Homo sapiens, UniProt Q9Y5N1). The data set is described as follows: Agonist activity at human H3R expressed in HEK293 cells harboring glosensor-22F cAMP plasmid DNA assessed as inhibition of forskolin-stimulated cAMP accumulation preincubated with cells followed by forskolin addition measured after 10 mins by luminescence assay. In kind it is functional, cell-based. For orientation: cAMP levels reflect the balance of adenylyl cyclase and phosphodiesterase activity.

Data set [2] addresses T2, 5-hydroxytryptamine receptor 2C (Homo sapiens) (UniProt P28335).
T2 sequence (whole entry): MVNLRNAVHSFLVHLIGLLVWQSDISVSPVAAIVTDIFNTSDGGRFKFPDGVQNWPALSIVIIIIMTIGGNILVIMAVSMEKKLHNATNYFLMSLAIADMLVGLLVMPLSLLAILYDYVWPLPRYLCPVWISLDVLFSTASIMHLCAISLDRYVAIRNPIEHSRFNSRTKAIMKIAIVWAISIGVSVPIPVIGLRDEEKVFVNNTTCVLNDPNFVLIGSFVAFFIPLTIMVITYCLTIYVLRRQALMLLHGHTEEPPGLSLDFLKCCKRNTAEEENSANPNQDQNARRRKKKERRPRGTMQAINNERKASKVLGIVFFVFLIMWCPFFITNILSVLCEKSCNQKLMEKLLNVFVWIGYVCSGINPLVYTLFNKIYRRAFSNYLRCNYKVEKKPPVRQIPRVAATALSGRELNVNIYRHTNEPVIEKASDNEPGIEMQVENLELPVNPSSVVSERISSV
The data set is described as follows: Agonist activity at human 5-HT2C expressed in HEK293 cells harboring luc2P/NFAT-RE plasmid at 10 uM after 6 to 8 hrs by luciferase reporter gene assay. In kind it is functional, cell-based. (In general: Reporter assays use an easily measured gene product as a stand-in for the process of interest.)

Data set [3] concerns the target T2, 5-hydroxytryptamine receptor 2C (Homo sapiens). The experiment in a line: Antagonist activity at human 5-HT2C expressed in HEK293 cells harboring luc2P/NFAT-RE plasmid at 10 uM after 6 to 8 hrs by luciferase reporter gene assay. The class given is functional, cell-based.
Data set [4] addresses Histamine H1 receptor (Homo sapiens) (UniProt P35367). The data set is described as follows: Antagonist activity at H1R (unknown origin) expressed in HEK293 cells harboring luc2P/NFAT-RE plasmid at 10 uM after 6 to 8 hrs by luciferase reporter gene assay. The class given is functional, cell-based.
In another data set the test system is HEK-293T. The data set is described as follows: Cytotoxicity against HEK293T cells assessed as reduction in cell viability at 1 to 10 uM after 24 hrs by XTT assay. In kind it is cell-based. The conditions noted are these: human.
For data set [5], the target named is Histamine H1 receptor (Homo sapiens) (UniProt P35367). The data set is described as follows: Agonist activity at H1R (unknown origin) expressed in HEK293 cells harboring luc2P/NFAT-RE plasmid at 10 uM after 6 to 8 hrs by luciferase reporter gene assay. The class given is functional, cell-based.
Data set [6] has as its target Histamine H2 receptor (Homo sapiens) (UniProt P25021). The experiment in a line: Antagonist activity at H2R (unknown origin) expressed in HEK293 cells harboring glosensor-22F cAMP plasmid DNA assessed as effect on forskolin-stimulated cAMP accumulation at 10 uM preincubated with cells followed by forskolin addition measured after 10 mins by luminescence assay. The class given is functional, cell-based.

In data set [7] the target is Histamine H4 receptor (Homo sapiens) (UniProt Q9H3N8). The data set is described as follows: Agonist activity at H4R (unknown origin) expressed in HEK293 cells harboring glosensor-22F cAMP plasmid DNA assessed as inhibition of forskolin-stimulated cAMP accumulation at 10 uM preincubated with cells followed by forskolin addition measured after 10 mins by luminescence assay. In kind it is functional, cell-based.

Data set [8] concerns the target Luciferin 4-monooxygenase (Photinus pyralis) (UniProt P08659). The data set is described as follows: Inhibition of firefly luciferase activity expressed in HEK293 cells assessed as reduction in forskolin-stimulated cAMP accumulation up to 10 uM preincubated with cells followed by forskolin addition measured after 10 mins by luminescence assay. The class given is cell-based.

Data set [9] deals with T1, Histamine H3 receptor. The data set is described as follows: Agonist activity at human H3R expressed in HEK293 cells harboring glosensor-22F cAMP plasmid DNA assessed as inhibition of forskolin-stimulated cAMP accumulation at 1 uM preincubated with cells followed by forskolin addition measured after 10 mins in presence of H3R antagonist GSK334429 by luminescence assay. The class given is functional, cell-based.

Data set [10] deals with Histamine H2 receptor (Homo sapiens) (UniProt P25021). The experiment in a line: Agonist activity at H2R (unknown origin) expressed in HEK293 cells harboring glosensor-22F cAMP plasmid DNA assessed as inhibition of forskolin-stimulated cAMP accumulation at 10 uM preincubated with cells followed by forskolin addition measured after 10 mins by luminescence assay. The class given is functional, cell-based.

In data set [11] the target is Histamine H4 receptor (Homo sapiens) (UniProt Q9H3N8). The experiment in a line: Antagonist activity at H4R (unknown origin) expressed in HEK293 cells harboring glosensor-22F cAMP plasmid DNA assessed as effect on forskolin-stimulated cAMP accumulation at 10 uM preincubated with cells followed by forskolin addition measured after 10 mins by luminescence assay. In kind it is functional, cell-based.

Data set [12] deals with T1, Histamine H3 receptor. The data set is described as follows: Agonist activity at human H3R expressed in HEK293 cells harboring glosensor-22F cAMP plasmid DNA assessed as inhibition of forskolin-stimulated cAMP accumulation at 10 uM preincubated with cells followed by forskolin addition measured after 10 mins by luminescence assay relative to control. In kind it is functional, cell-based.

Calls of active or inactive are those of the source.

Histamine H1 receptor (Homo sapiens), sequence (P35367 whole entry): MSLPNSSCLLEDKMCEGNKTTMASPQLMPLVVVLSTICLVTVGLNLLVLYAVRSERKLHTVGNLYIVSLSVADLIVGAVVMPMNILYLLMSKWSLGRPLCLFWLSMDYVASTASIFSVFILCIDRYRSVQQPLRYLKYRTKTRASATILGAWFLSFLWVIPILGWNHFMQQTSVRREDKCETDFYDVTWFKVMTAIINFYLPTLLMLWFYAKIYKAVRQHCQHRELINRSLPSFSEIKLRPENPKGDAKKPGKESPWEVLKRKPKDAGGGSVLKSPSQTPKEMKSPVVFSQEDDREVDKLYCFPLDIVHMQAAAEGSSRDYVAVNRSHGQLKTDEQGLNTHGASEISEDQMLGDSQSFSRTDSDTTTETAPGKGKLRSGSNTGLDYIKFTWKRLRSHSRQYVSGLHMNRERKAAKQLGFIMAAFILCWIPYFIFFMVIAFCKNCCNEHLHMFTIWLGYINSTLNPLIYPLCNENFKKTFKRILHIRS
Histamine H2 receptor (Homo sapiens), sequence (P25021 whole entry): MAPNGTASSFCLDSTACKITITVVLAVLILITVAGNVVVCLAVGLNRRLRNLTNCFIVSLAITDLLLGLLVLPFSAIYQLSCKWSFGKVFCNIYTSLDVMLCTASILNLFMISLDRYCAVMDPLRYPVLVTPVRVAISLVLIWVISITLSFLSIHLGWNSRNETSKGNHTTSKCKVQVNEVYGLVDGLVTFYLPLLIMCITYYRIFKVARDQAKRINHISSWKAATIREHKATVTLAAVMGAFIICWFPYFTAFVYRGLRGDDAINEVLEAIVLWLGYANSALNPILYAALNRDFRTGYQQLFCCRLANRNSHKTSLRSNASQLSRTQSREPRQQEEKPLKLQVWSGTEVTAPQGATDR
Histamine H4 receptor (Homo sapiens), sequence (Q9H3N8 whole entry): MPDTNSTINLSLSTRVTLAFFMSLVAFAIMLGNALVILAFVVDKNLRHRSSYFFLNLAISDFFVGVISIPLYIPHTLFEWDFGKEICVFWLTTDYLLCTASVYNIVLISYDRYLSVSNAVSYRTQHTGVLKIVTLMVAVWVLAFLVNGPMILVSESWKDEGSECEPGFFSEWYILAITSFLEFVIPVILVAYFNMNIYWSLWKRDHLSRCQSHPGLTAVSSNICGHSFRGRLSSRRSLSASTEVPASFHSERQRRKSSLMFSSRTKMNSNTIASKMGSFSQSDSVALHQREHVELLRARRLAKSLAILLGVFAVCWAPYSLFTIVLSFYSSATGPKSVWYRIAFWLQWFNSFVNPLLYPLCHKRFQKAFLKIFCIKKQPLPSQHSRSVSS
Luciferin 4-monooxygenase (Photinus pyralis), sequence (P08659 whole entry): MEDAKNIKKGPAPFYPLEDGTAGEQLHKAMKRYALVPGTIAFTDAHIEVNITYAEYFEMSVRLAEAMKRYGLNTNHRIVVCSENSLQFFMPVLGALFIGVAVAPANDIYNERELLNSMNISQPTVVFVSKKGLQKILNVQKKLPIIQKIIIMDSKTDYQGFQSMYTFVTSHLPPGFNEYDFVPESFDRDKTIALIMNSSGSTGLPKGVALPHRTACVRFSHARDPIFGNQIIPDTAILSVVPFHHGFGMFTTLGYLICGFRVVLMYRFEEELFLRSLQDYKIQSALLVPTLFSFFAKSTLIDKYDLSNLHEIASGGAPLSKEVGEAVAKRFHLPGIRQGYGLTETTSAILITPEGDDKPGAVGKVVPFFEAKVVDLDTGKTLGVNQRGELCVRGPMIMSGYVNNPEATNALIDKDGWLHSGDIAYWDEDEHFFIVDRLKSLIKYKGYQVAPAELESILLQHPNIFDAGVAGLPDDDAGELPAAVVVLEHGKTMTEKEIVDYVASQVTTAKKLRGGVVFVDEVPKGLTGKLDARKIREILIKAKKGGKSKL
T1 sequence (Q9Y5N1 whole entry): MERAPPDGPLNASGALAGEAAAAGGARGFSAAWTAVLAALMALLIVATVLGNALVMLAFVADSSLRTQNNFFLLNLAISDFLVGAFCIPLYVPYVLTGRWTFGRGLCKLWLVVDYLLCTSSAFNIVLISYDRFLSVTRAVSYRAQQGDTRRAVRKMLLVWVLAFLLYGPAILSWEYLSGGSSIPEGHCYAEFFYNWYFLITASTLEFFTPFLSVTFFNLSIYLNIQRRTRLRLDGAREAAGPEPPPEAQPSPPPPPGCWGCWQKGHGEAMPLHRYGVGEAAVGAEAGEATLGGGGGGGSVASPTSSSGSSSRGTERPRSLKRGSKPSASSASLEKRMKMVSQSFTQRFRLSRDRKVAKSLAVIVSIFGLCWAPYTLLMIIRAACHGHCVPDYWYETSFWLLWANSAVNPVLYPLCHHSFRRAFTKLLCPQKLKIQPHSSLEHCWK

For `COc1cc(N2C(=O)C(=Cc3ccccc3)C2(C(=O)NC(C)(C)C)c2ccc(Cl)c(F)c2)cc(OC)c1OC` (stereo not drawn), the EC50 on Histamine H3 receptor [1] (read-out: EC50) worked out at 1.1 nM. For the same molecule, the outcome in data set [2] and in [5] was inactive. In addition, the inhibition entry (in data set [3]; in data set [4]; in data set [6]; in data set [7]; in [8]; on Histamine H3 receptor [9]) was “inactive” throughout. Moreover, the inhibition result in data set [10] and in data set [11] was “inactive” each time. Besides, in the data set on HEK-293T, the Activity entry is on record as “Non-Toxic”.
For `COc1ccc(NC2(c3ccc(Br)cc3)C(=O)N(C(C)(C)C)C(=O)/C2=C/c2ccccc2)cc1OC` (stereo not drawn), the EC50 on Histamine H3 receptor [1] (read-out: EC50) was found to be 1.3 nM. In addition, the result in data set [2] and in [5] was inactive. For the same molecule, the inhibition entry (in data set [3]; in data set [4]; in data set [6]; in [7]; in data set [8]; on Histamine H3 receptor [9]) was “inactive” each time. For the same molecule, the inhibition entry in data set [10] and in [11] was “inactive” throughout. Moreover, the Activity entry with HEK-293T is given as “Non-Toxic”.
With `COc1ccc(NC2(c3ccc(F)cc3)C(=O)N(C(C)(C)C)C(=O)/C2=C/c2ccccc2)cc1` (stereo not drawn), the EC50 at Histamine H3 receptor [1] (read-out: EC50) was 1.3 nM; at Histamine H3 receptor [1] (read-out: pEC50 (converted)), 1.23 nM. In addition, the outcome in [2] and in data set [5] was inactive. Moreover, the inhibition result (in data set [3]; in data set [4]; in data set [6]; in [7]; in data set [8]; at Histamine H3 receptor [9]) was “inactive” each time. The inhibition result in [10] and in data set [11] was “inactive” each time. For the same molecule, the Activity entry in the data set with HEK-293T is reported as “Non-Toxic”.
Regarding `N=C(N)SCCc1cnc[nH]1`, the EC50 at Histamine H3 receptor [1] (read-out: EC50) stood at 0.08 nM.
Take `CC(C)(C)NC(=O)C(c1ccccc1Br)N1C(=O)C(I)=C(c2ccccc2)C12C=CC(=O)C=C2` (stereo not drawn): in [2], the outcome was inactive. Also, at Histamine H3 receptor [12], the inhibition entry is “inactive”.
Take `CC(C)(C)NC(=O)C(c1cc2c(cc1Br)OCO2)N1C(=O)C(I)=C(c2ccccc2)C12C=CC(=O)C=C2` (stereo not drawn): the result in [2] was inactive. In addition, the inhibition result at Histamine H3 receptor [12] is “inactive”.
`O=C1C=C[C@]23C(c4ccccc4)=CC(=O)N2[C@H](c2cccc(OC(F)(F)F)c2)C(=O)N[C@@H]3C1`: the result in [2] was inactive. The inhibition result at Histamine H3 receptor [12] is “inactive”.
In the case of `COc1ccc(C(C(=O)NC2CCCCC2)N2C(=O)C(I)=C(c3ccccc3)C23C=CC(=O)C=C3)cc1C` (stereo not drawn), the outcome in data set [2] was inactive. Besides, the inhibition entry at Histamine H3 receptor [12] is “inactive”.
For `COC1=CC2(C=C(OC)C1=O)C(c1ccccc1)=C(I)C(=O)N2C(C(=O)NC1CCCCC1)c1cc(OC)c(OC)c(OC)c1` (stereo not drawn), the outcome in data set [2] was inactive. Besides, the inhibition result at Histamine H3 receptor [12] was “inactive”.
For the molecule `COc1ccc(N2C(=O)/C(=C\c3ccccc3)C2(C(=O)NC(C)(C)C)c2ccc(C(F)(F)F)cc2)cc1` (stereo not drawn), the result in data set [2] was inactive. Besides, the inhibition result on Histamine H3 receptor [12] was “inactive”.
As for `O=C1C=C[C@]23C(c4ccccc4)=CC(=O)N2[C@H](c2ccc(F)cc2)C(=O)N[C@@H]3C1`, the result in data set [2] was inactive. The inhibition result at Histamine H3 receptor [12] is “inactive”.
In the case of `COc1ccc(C2(Nc3cc(OC)c(OC)c(OC)c3)C(=O)N(C3CCCCC3)C(=O)/C2=C/c2ccccc2)cc1` (stereo not drawn), in [2], the result was inactive. Besides, the inhibition result on Histamine H3 receptor [12] is “inactive”.
`COc1ccc(N2C(=O)C(=Cc3ccccc3)C2(C(=O)NC2CCCCC2)c2ccccc2)cc1OC` (stereo not drawn): the result in data set [2] was inactive. Moreover, the inhibition result at Histamine H3 receptor [12] is “inactive”.
Turning to `COc1cc(OC)c(C(C(=O)NC2CCCCC2)N2C(=O)C(c3ccc(CO)cc3)=C(c3ccccc3)C23C=CC(=O)C=C3)cc1OC` (stereo not drawn), the result in [2] was inactive. Besides, at Histamine H3 receptor [12], the inhibition entry was “inactive”.
For `Cc1ccccc1C(C(=O)NC(C)(C)C)N1C(=O)C(I)=C(c2ccccc2)C12C=CC(=O)C=C2` (stereo not drawn), the result in data set [2] was inactive. The inhibition result on Histamine H3 receptor [12] was “inactive”.
As to `COC1=CC2(C=C(OC)C1=O)C(c1ccccc1)=C(c1ccc(OC)c(OC)c1OC)C(=O)N2C(C(=O)NC1CCCCC1)c1cc(OC)c(OC)c(OC)c1` (stereo not drawn), the outcome in [2] was inactive. Further, the inhibition entry on Histamine H3 receptor [12] is “inactive”.
For `Cc1cc(C)cc([C@@H]2C(=O)N[C@@H]3CC(=O)C=C[C@@]34C(c3ccccc3)=CC(=O)N24)c1`, in [2], the result was inactive. On Histamine H3 receptor [12], the inhibition entry was “inactive”.
As to `COc1ccc(C2=C(c3ccccc3)C3(C=CC(=O)C=C3)N(C(C(=O)NC3CCCCC3)c3ccc(OC)c(C)c3)C2=O)cc1` (stereo not drawn), the result in data set [2] was inactive. For the same molecule, the inhibition entry on Histamine H3 receptor [12] was “inactive”.
As to `COc1ccc(NC2(c3ccc(F)cc3)C(=O)N(C3CCCCC3)C(=O)/C2=C/c2ccccc2)cc1OC` (stereo not drawn), in [2], the result was inactive. For the same molecule, the inhibition entry at Histamine H3 receptor [12] was “inactive”.
Take `O=C1C=CC2(C=C1)C(c1ccccc1)=C(I)C(=O)N2C(C(=O)NC1CCCCC1)c1cc2c(cc1Br)OCO2` (stereo not drawn): the result in data set [2] was inactive. Further, on Histamine H3 receptor [12], the inhibition entry is “inactive”.
With `COC1=CC2(C=C(OC)C1=O)C(c1ccccc1)=C(c1ccc(CO)cc1)C(=O)N2C(C(=O)NC1CCCCC1)c1ccc(OC)c(OC)c1OC` (stereo not drawn), the outcome in data set [2] was inactive. For the same molecule, the inhibition result at Histamine H3 receptor [12] was “inactive”.
Regarding `O=C1C=CC2(C=C1)C(c1ccccc1)=C(I)C(=O)N2C(C(=O)NC1CCCCC1)c1ccc(Cl)cc1` (stereo not drawn), the outcome in data set [2] was inactive. In addition, at Histamine H3 receptor [12], the inhibition result is “inactive”.
For the molecule `COc1cc(NC2(c3ccc(Cl)c(F)c3)C(=O)N(C(C)(C)C)C(=O)/C2=C/c2ccccc2)cc(OC)c1OC` (stereo not drawn), the result in data set [2] was inactive. Moreover, the inhibition result at Histamine H3 receptor [12] is “inactive”.
`O=C1C=C[C@]23C(c4ccccc4)=CC(=O)N2[C@H](c2cccc([N+](=O)[O-])c2)C(=O)N[C@@H]3C1`: the outcome in data set [2] was inactive. Moreover, at Histamine H3 receptor [12], the inhibition entry is “inactive”.
For the molecule `O=C1C=C[C@]23C(c4ccccc4)=CC(=O)N2[C@H](c2cc(F)c(F)c(F)c2)C(=O)N[C@@H]3C1`, the outcome in [2] was inactive. Besides, at Histamine H3 receptor [12], the inhibition result was “inactive”.
Regarding `COc1ccc(NC2(c3ccc(Br)cc3)C(=O)N(C3CCCCC3)C(=O)/C2=C/c2ccccc2)cc1OC` (stereo not drawn), the outcome in [2] was inactive. Besides, the inhibition result on Histamine H3 receptor [12] was “inactive”.
In the case of `COc1ccc(N2C(=O)/C(=C\c3ccccc3)C2(C(=O)NC(C)(C)C)c2ccc(Br)cc2)cc1` (stereo not drawn), the outcome in data set [2] was inactive. Besides, at Histamine H3 receptor [12], the inhibition result was “inactive”.
As for `COc1ccc(N2C(=O)/C(=C\c3ccccc3)C2(C(=O)NC2CCCCC2)c2cc(F)cc(F)c2)cc1OC` (stereo not drawn), the outcome in data set [2] was inactive. In addition, the inhibition entry on Histamine H3 receptor [12] is “inactive”.
As for `COc1cc(OC)c(C(C(=O)NC2CCCCC2)N2C(=O)C(I)=C(c3ccccc3)C23C=CC(=O)C=C3)cc1OC` (stereo not drawn), the outcome in data set [2] was inactive. Further, the inhibition entry on Histamine H3 receptor [12] is “inactive”.

(Values after ChEMBL document CHEMBL4152237, “Identification of novel β-lactams and pyrrolidinone derivatives as selective Histamine-3 receptor (H3R) modulators as possible anti-obesity agents” (Eur J Med Chem, 2018).)
